{"source": "patent US20220313717A1", "about": "“METHODS OF TREATING CRYPTOCOCCUS INFECTIONS” (MATINAS BIOPHARMA NANOTECHNOLOGIES, INC., priority 2019, published 2022)", "key": {"Cryptococcus spp. [1]": {"tested_on": "Cryptococcus spp.", "conditions": "cited from earlier work"}, "[2]": {"assay": "Participant subjective impressions of cAMB versus prior IV AMB (qualitative scale, visual analog)", "set-up": "species or system human", "conditions": "recall of prior IV therapy (6/24)", "method": "Trial endpoints included: 1) Proportion of daily dose received and tolerated without vomiting within 30 minutes; 2) Cumulative score of nausea, vomiting, diarrhea by Common Terminology Criteria AE (CTCAE) grade scoring criteria (U.S. Department of Health and Human Services NIoH, National Cancer Institute, 2017, Common Terminology Criteria for Adverse Events (CTCAE) v 5.0); 3) Incidence of adverse events (AEs) by National Institute of Allergy and Infectious Diseases (NIAID) Division of AIDS (DAIDS) toxicity scale (version 2017) for Grade 1-5 or serious AEs (SAE) (U.S. Department of Health and Human Services NIoH, National Institute of Allergy and Infectious Diseases, Division of AIDS, 2017, Division of AIDS (DAIDS) Table for Grading the Severity of Adult and Pediatric Adverse Events, Corrected Version 2.1.); 4) Participant subjective impression(s) of cAMB by visual analog and other scales. All clinical and laboratory AEs were followed up until resolution.\nStatistical analyses were primarily descriptive. The median and interquartile ranges or the number and proportions were reported where appropriate. Area under the curve (AUC) calculations were made using a linear trapezoidal method with statistical comparison by ANOVA. […]\nUsing a qualitative scale, we assessed participant impressions of their cAMB experience versus their prior IV AMB experience in the Phase 1A cohort."}, "CYP3A4": {"molecular_target": "CYP3A4 (Homo sapiens, UniProt P08684)", "sequence (P08684 whole entry)": "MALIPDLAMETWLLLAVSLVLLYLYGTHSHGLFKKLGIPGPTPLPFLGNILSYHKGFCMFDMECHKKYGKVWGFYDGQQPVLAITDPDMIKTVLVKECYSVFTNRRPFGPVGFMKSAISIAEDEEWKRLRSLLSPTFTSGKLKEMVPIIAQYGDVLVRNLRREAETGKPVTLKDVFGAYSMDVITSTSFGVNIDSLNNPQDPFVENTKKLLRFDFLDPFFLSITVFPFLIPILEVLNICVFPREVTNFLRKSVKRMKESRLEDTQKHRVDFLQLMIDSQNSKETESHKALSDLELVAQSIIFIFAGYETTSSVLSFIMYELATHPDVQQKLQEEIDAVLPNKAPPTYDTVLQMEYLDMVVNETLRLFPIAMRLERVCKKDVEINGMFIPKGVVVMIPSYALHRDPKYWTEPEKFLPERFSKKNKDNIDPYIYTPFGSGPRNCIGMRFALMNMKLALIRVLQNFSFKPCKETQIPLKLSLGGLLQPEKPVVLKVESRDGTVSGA", "conditions": "cited from earlier work"}, "CYP2C9": {"molecular_target": "CYP2C9 (Homo sapiens, UniProt P11712)", "sequence (P11712 whole entry)": "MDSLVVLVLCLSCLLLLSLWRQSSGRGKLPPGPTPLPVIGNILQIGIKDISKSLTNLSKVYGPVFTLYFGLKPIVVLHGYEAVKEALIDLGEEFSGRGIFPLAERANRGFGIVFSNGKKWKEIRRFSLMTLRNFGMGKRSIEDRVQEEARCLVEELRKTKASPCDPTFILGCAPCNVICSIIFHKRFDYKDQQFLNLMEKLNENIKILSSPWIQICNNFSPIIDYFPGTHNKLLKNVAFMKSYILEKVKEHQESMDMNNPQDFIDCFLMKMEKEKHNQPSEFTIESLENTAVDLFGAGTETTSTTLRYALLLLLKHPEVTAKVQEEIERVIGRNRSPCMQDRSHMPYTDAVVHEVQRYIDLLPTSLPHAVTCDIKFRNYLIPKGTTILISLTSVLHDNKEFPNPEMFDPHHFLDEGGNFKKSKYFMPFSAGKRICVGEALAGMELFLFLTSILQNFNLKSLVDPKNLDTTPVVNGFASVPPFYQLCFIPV", "conditions": "cited from earlier work"}, "Cryptococcus spp. [3]": {"tested_on": "Cryptococcus spp.", "conditions": "in vivo, cited from earlier work"}}}
{"smiles": "Nc1ncccc1-c1cc(Cc2ccc(COc3ccccn3)cc2)no1", "note": "[E1210]", "values": [{"measurement": "in vitro activity against Cryptococcus spp.", "setting": "Cryptococcus spp. [1]", "value": "has in vitro activity against Cryptococcus spp."}]}
{"smiles": "C[C@@H]1[C@H](O)[C@@H](C)/C=C/C=C/C=C/C=C/C=C/C=C/C=C/[C@H](O[C@@H]2O[C@H](C)[C@@H](O)[C@H](N)[C@@H]2O)C[C@@H]2O[C@](O)(C[C@@H](O)C[C@@H](O)[C@H](O)CC[C@@H](O)C[C@@H](O)CC(=O)O[C@H]1C)C[C@H](O)[C@H]2C(=O)O", "note": "[IV AMB, amphotericin B]", "values": [{"measurement": "participants who recalled severe nausea", "setting": "[2]", "value": 25, "unit": "%"}]}
{"smiles": "OC(Cn1cncn1)(Cn1cncn1)c1ccc(F)cc1F", "note": "[Fluconazole, fluconazole]", "values": [{"measurement": "CYP3A4 inhibition", "setting": "CYP3A4", "value": "moderate CYP3A4 inhibitor"}, {"measurement": "CYP2C9 inhibition", "setting": "CYP2C9", "value": "potent CYP2C9 inhibitor"}]}
{"smiles": "OC(Cn1cnnn1)(c1ccc(F)cc1F)C(F)(F)c1ccc(-c2ccc(OCC(F)(F)F)cc2)cn1", "note": "(stereo not drawn) [VT-1129]", "values": [{"measurement": "fungicidal activity in mouse models of Cryptococcus spp. infection", "setting": "Cryptococcus spp. [3]", "value": "fungicidal"}, {"measurement": "CNS penetration", "setting": "Cryptococcus spp. [3]; mouse", "value": "good CNS penetration"}]}
